The Kd is the free concentration of one partner at which half of the binding sites on the other are occupied at equilibrium, for simple one-to-one binding. Usually CC50 stands for the concentration at which the toxic effect on the cells reaches its halfway point. As a reminder, the EC50 is the concentration needed to bring the measured effect to its halfway point. A word on the IC50: it is the midpoint of a concentration-inhibition curve.

Data set [1] addresses T1, Cp149 (Hepatitis B virus genotype D subtype adw, UniProt P03147).
T1 construct: The N-terminal domain of Cp (Cp149) is sufficient for forming regular capsids; made in house; host or cells: E. coli BL21(DE3)
The arrangement: method as in PMID 31712213. Conditions: read-out: previously reported dissociation constant (KD); cited from earlier work.

The target in data set [2] is T2, Cp149 capsid assembly (Hepatitis B virus genotype D subtype adw, UniProt P03147).
T2 construct: The N-terminal domain of Cp (Cp149) is sufficient for forming regular capsids; made in house; host or cells: E. coli BL21(DE3)
Briefly: Size exclusion chromatography of Cp149 assembly. As to conditions: 20 μM Cp149, 40 μM CAM, 500 mM NaCl, 1 h, 37 °C. Format: biochemical. How it is done: The Cp149 protein solution and the compound solution were initially mixed in concentrations of 40 μM Cp149 and 80 μM compound and incubated for 1 h at 37 °C to allow the compound to bind to the protein. The NaCl solution was then added to the incubated mixture to final concentrations of 20 μM Cp149, 40 μM compound, and 500 mM NaCl to initiate the assembly of Cp149. This mixture was incubated at 37 °C for 1 h. Finally, […] of the sample was analyzed using a hand-poured Superose 6 column, at the flow rate of 0.4 mL/min, and the isocratic mobile phase was 50 mM HEPES (pH 7.5).
(Size exclusion chromatography separates by hydrodynamic size, large species first.)

Data set [3] deals with T2, Cp149 capsid assembly. Briefly: Transmission electron microscopy of assembled Cp149 products. Format: biochemical. Conditions: for effect on capsid morphology (TEM) / % abnormal capsids, Trial 1 / % abnormal capsids, Trial 2: 20 μM Cp149, 40 μM compound; for % abnormal capsids, Trial 1 / % abnormal capsids, Trial 2: 500 mM NaCl. How it is done:
The assembled samples of Cp149 were prepared as described in the Size Exclusion Chromatography section. Eight μL of each sample was added onto the 300 mesh Lacey Formvar carbon–copper grids (Ted Pella, Inc.) and allowed to sit for 1.5 min. The grid was then rinsed in 500 mL of deionized water for 10 s twice to rinse off the extra buffer on the grid. After drying, the sample was stained with 8 μL of 2% uranyl acetate for 1 min. After removal and drying of the uranyl acetate solution, the sample was imaged with a Hitachi HT7700 electron microscope at an accelerating voltage of 120 kV, at the IMat Materials Characterization Facility of Georgia Institute of Technology. The images underwent processing using ImageJ software. Initially, to minimize noise, a Gaussian blur filter was applied. These images were then converted into an 8 bit binary format for edge detection. ImageJ identified particles ranging in size from 800 to 2000 pixels. An example of a processed image can be seen in Figure S14. The circularity of each particle was calculated using the formula circularity = 4π × area × perimeter^–2. […] A total of four images, each containing a minimum of 100 capsids, were analyzed to determine the proportion of the abnormal capsids. The entire experiment was duplicated, and the outcomes from both sets were then averaged.

The nature of data set [4]: MTT cytotoxicity, HepG2 cells. Format: cell-based, human. As to conditions: human, HepG2 cells (liver carcinoma). The method, boiled down: (§1)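 Non-radioactive MTT proliferation assay kit used; cytotoxicity inferred from reduced tetrazolium conversion by treated cultures.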
The nature of data set [5]: MTT cytotoxicity, Vero cells. Type of data set: cell-based, African green monkey. Conditions: African green monkey, Vero cells (kidney). The method, boiled down: as §1
Data set [6] relates to HBV DNA replication in HepAD38 cells. Description: HBV DNA replication inhibition assay in HepAD38 cells (7 days, PCR of supernatant DNA). Conditions: Hepatitis B virus; for inhibition at 200 µM: read-out: Anti-HBV activity in HepAD38 cells, % Inh. at 200 µM ± SD. Format: cell-based, hepatitis B virus. An outline of the steps: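 HepAD38 cells treated with compounds in dose–response […] for 7 days. On day 7, total DNA purified from supernatant and HBV DNA quantified by PCR; samples run in duplicate.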

Data set [7] is described as follows: MTT cytotoxicity, CEM cells. Type of data set: cell-based, human. As to conditions: human, T lymphoblast CEM-CCRF (CEM) cells. An outline of the steps: as §1
Data set [8] can be described thus: MTT cytotoxicity, PBM cells. Format: cell-based, human. As to conditions: human, peripheral blood mononuclear (PBM) cells. An outline of the steps: as §1
The nature of data set [9]: MTT cytotoxicity, four cell lines taken together. Type of data set: cell-based. As to conditions: human, African green monkey; PBM, CEM, Vero, HepG2; read-out: CC50 in all cell lines. Here is the method:
(§2) Human peripheral blood mononuclear (PBM), T lymphoblast CEM-CCRF (herein referred to as CEM cells), African green monkey kidney (Vero), or human liver carcinoma (HepG2) cells were tested via MTT assay using the CellTiter 96 Non-Radioactive Cell Proliferation (Promega) kit as previously described.[63]

Data set [10] relates to human liver carcinoma (HepG2) cells. Briefly: MTT cytotoxicity, HepG2 cells. Type of data set: cell-based. Conditions: HepG2 cells, 100 µM. An outline of the steps: as §1
In data set [11] the test system is African green monkey kidney (Vero) cells. Description: MTT cytotoxicity, Vero cells. Format: cell-based. Conditions: Vero cells, 100 µM. The method, boiled down: as §1
The subject of data set [12] is human peripheral blood mononuclear (PBM) cells. Description: MTT cytotoxicity, PBM cells. Format: cell-based. As to conditions: 100 µM. An outline of the steps: as §1
Data set [13] deals with T1, Cp149. Description: Tryptophan fluorescence titration. Type of data set: binding. Conditions: 20 μM Cp149, compound up to 100 μM. Here is the method:
Each of the compounds was titrated into 100 μL of the protein solution to final concentrations of 0, 5, 10, 20, 50, and 100 μM in a clear bottom 96-well plate. […] Tryptophan fluorescence levels were measured by exciting the samples at 285 nm and measuring the emission at 340 nm with the Varioskan Flash (Thermo Fisher) plate reader. […] Fluorescence quenching was calculated by taking the difference of net fluorescence levels of each concentration and of the 0 μM sample. All the samples were run in triplicate, and the results were averaged. The dissociation constants (KD) were fitted by the one-site-specific binding model of GraphPad.[45]

Data set [14] has as its system PBM, CEM, Vero and HepG2 cells. Description: MTT cytotoxicity, four cell lines taken together. Type of data set: cell-based. Here is the method:
as §2

Data set [15] is described as follows: MTS cytotoxicity (Table S4).
In data set [16] the test system is T lymphoblast CEM-CCRF (CEM) cells. Description: MTT cytotoxicity, CEM cells. Type of data set: cell-based, human. Conditions: 100 µM. The method, boiled down:
as §1

Where [17] appears, read: HepAD38 cells, 10 μM, trial 1, read-out: % HBV DNA Inh. at 10 μM, trial 1.
Setting [18] is: HePAD38, additional testing, Table S4.
[19] abbreviates: HePAD38, additional testing, Table S4, read-out: Anti-HBV activity in HepAD38 cells, EC50.
Where [20] appears, read: HepAD38 cells, 10 μM, trial 2, read-out: % HBV DNA Inh. at 10 μM, trial 2.
[21] abbreviates: HepAD38 cells, 10 µM, trial 3, read-out: % HBV DNA Inh. at 10 µM, trial 3.
Setting [22] is: HepAD38 cells, 10 µM, trial 4, read-out: % HBV DNA Inh. at 10 µM, trial 4.
Where [23] appears, read: HepAD38 cells, 10 μM, read-out: % inhibition in at least one of the trials.
The mark [24] stands for this setting: HepAD38 cells, trial 1, read-out: EC50, trial 1.
Setting [25] is: HepAD38 cells, trial 2, read-out: EC50, trial 2.
The mark [26] stands for this setting: HepAD38 cells, trial 3, read-out: EC50, trial 3.
Where [27] appears, read: HepAD38 cells, trial 4, read-out: EC50, trial 4.

Like-named read-outs stand apart in the source and are kept apart here.

T1 sequence (P03147 1-149): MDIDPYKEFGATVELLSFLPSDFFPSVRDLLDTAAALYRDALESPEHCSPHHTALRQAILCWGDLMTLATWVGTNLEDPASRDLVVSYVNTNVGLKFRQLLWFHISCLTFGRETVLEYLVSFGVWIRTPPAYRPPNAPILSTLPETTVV
T2 sequence (P03147 1-149): as above

On to `C#CCNC(=O)C(=O)c1c(C)c(C(=O)Nc2ccc(F)c(F)c2)n(C)c1C` [GLP-26], for which the dissociation constant Kd on Cp149 [1] was 0.7 µM.

As to `CCOC(=O)C1=C(CN2CCOCC2)NC(c2nccs2)=NC1c1ccc(F)cc1Br` (stereo not shown) [GLS4, reference compound], the “effect on distribution of dimers and capsids / capsid size (SEC)” value on Cp149 capsid assembly [2] was “strong enhancement of assembly”. For the same compound, on Cp149 capsid assembly [3], the “effect on capsid morphology (TEM)” value is given as “strong misdirecting effects”.

Turning to `Cc1cc2nc(-c3ccccn3)c(-c3ccccn3)nc2cc1C` [GT-5], the CC50 in data set [4], in data set [5], in data set [7], in [8] and in data set [9] was above 100 µM each time. The inhibition at 10 µM in data set [6] (HepAD38 cells, 10 µM, first round of selected compounds, read-out: HBV DNA inhibition (%) at 10 µM) came to 24.7%; in [6] (setting [17]) it was 24%.

`CCn1ccnc1-c1c(-c2ccccc2)ncn1CCCc1cccnc1` [GT-39]: the CC50 in [4] is above 100 µM; in data set [5], above 100 µM; in data set [7], 16 µM; in [8] it was above 100 µM. The “percent cytotoxicity (MTT) at 100 µM, HepG2” value in data set [10] was determined as 32%. The “% cytotoxicity (MTT) at 100 µM” value in data set [11] amounted to 47%. The inhibition at 200 µM in data set [6] (setting [18]) is 39.1 ± 1.5%. The EC50 in [6] (setting [19]) is above 200 µM; in [6] (setting [24]), below 10 µM; in [6] (setting [25]), 10 µM; in data set [6] (setting [26]), above 10 µM; in data set [6] (setting [27]) it was above 100 µM. Besides, the inhibition at 10 µM is 57% in data set [6] (setting [17]); 50% in data set [6] (setting [20]); below 1% in [6] (setting [21]); 36% in [6] (setting [22]); above 50% in [6] (setting [23]). The “percent cytotoxicity (cell growth inhibition) at 100 µM” value in data set [12] was determined as 22%. Also, the tryptophan fluorescence quenching entry on Cp149 [13] was “reproducible but modest fluorescence quenching”. In “in vitro”, this compound registered an IC50 above 200 µM. Moreover, the “effect on capsid morphology (TEM)” value on Cp149 capsid assembly [3] is reported as “induced misdirected products”. Further, at Cp149 capsid assembly [3], the “% abnormal capsids, Trial 1” value is 45%. The “% abnormal capsids, Trial 2” value at Cp149 capsid assembly [3] stood at 36%. In addition, the “toxicity in at least one cell line tested” value in data set [14] lay within 16 to 18 µM. Also, the “MTS cytotoxicity, % Inh. at 200 µM” value in [15] is reported as below 1%.

For the compound `Cc1ccc2[nH]c(CCNc3nccc(-c4ccccn4)n3)nc2c1C` [GT-47], the CC50 in [4] is 18 µM; in [5], above 100 µM; in data set [7], above 100 µM; in data set [8], above 100 µM. In data set [11], the “% cytotoxicity (MTT) at 100 µM” value is given as 31%. The inhibition at 200 µM in data set [6] (setting [18]) is below 1%. In addition, the EC50 was above 200 µM in data set [6] (setting [19]); at least 10 µM in data set [6] (setting [24]); at least 10 µM in [6] (setting [25]); above 10 µM in data set [6] (setting [26]); above 100 µM in [6] (setting [27]). For the same compound, the inhibition at 10 µM in data set [6] (setting [17]) was 49%; in data set [6] (setting [20]) it was 49%; in data set [6] (setting [21]) it was 14%; in [6] (setting [22]), below 1%; in [6] (setting [23]) it was above 50%. For the same compound, in [16], the “% cytotoxicity at 100 µM (MTT), CEM cells” value is listed as 48%. In addition, in data set [12], the “percent cytotoxicity (cell growth inhibition) at 100 µM” value amounted to 16%. Further, at Cp149 [13], the tryptophan fluorescence quenching result is on record as “reproducible but modest fluorescence quenching”. In “in vitro”, the IC50 is above 200 µM. On Cp149 capsid assembly [3], the “effect on capsid morphology (TEM)” value is given as “induced misdirected products”. The “% abnormal capsids, Trial 1” value on Cp149 capsid assembly [3] came out at 28%. Moreover, on Cp149 capsid assembly [3], the “% abnormal capsids, Trial 2” value was 23%. For the same compound, the “% abnormal capsids, Average” value on Cp149 capsid assembly [3] (average of two trials) is 26%. Also, the “toxicity in at least one cell line tested” value in [14] is 16 to 18 µM. The “MTS cytotoxicity, % Inh. at 200 µM” value in data set [15] is below 1%.

The record behind these values is paper PMC11019538, “Biophysics-Guided Lead Discovery of HBV Capsid Assembly Modifiers” (ACS Infectious Diseases, 2024).
